Converted amounts (≈) assume the structure as drawn.
Key:
[1] = system: Pneumococci, Streptococcus, Corynebacteria, Micrococci, Candida, Staphylococcus aureus; settings: several skin pathogens; cited from earlier work
[2] = system: Staphylococcus intermedius; test: Colorimetric AlamarBlue microtiterplate MIC determination of fatty acids; assay type: cell-based; settings: two S. intermedius strains, 24 h at 30° C.
Excerpt: (§1) A colorimetric method for quantitative measurement of the susceptibility of Staphylococcus aureus, Staphylococcus intermedius and Malassezia pachydermatis strains to fatty acids was developed. This method is based on the assays described by Hogan, J. S., et al, 1987, J. Dairy, Sci., 70, 927-934 and Tiballi, R. N., et al., 1995, J. Clin. Microbiol., 33 (4), 915-917.
(§2) The microorganisms used in this study were Staphylococcus aureus FSM 51, 52, 84 (food isolates), ATCC 6538, Staphylococcus intermedius BCCM™/LMG 9079, 13351 and Malassezia pachidermatis ATCC 14522. Staphylococcus strains were grown in Lab-Lemco broth (LL broth, Oxoid CM 15) for 18-20 h at 30° C. and Malassezia was cultivated for 5 days at 30° C. in liquid Dixon medium (30 g Malt extract, 20 g Oxbile, 15 g Agar, 5 g Mycological peptone, 2.5 g Glycerol mono-oleate, 10 ml Tween™ 40, pH=5.4±0.2). After washing in saline (Oxoid, BR53), cell pellets were resuspended in LL broth supplemented with 0.15% agar (w/v).
(§3) Minimal inhibitory concentrations (MICs) of palmitoleic, lauric and oleic acids (NU-CHECK-PREP, Inc, DK, U-40-A, N-12-A, U-46-A respectively) were investigated in a microtiterplate assay using an oxidation-reduction dye, AlamarBlue™ (Interchim, Fr), as an indicator of growth. Each plate was set up with each of the test microorganisms as follows: one column, 110 μl of sterile LL broth supplemented with 0.15% agar (negative control), one column, 100 μl of sterile LL broth supplemented with 0.15% agar plus 10 μl of test microorganism (positive control), other columns, 100 μl of serial two fold dilutions of the test fatty acids (diluted in LL broth supplemented with 0.15% agar) plus 10 μl of microorganism (final concentration of 10^3-10^4 cell/ml). Plates were incubated at 30° C. in ambient air and examined at 24 h and 4-5 days for Staphylococcus strains and Malassezia respectively. After incubation period, 25 μl of AlamarBlue™ solution (¼ diluted with 10 mM Phosphate Buffered Saline 0.05% Tween 20, Sigma P3563) were added to each well. After a second incubation of 2 h (Staphylococcus) and 1 day (Malassezia) at 30° C., endpoints were determined visually by observing a color change from blue (no growth) to pink (growth). MIC was defined as the lowest fatty acid concentration showing no growth (any color change).

Staphylococcus aureus = test: as above; assay type: cell-based; settings: four S. aureus strains, 24 h at 30° C.
Excerpt: as §1, §2, §3

Malassezia pachydermatis = test: as above; assay type: cell-based; settings: one M. pachydermatis strain, 4-5 days at 30° C.
Excerpt: as §1, §2, §3

[3] = human trial, 600 mg/day for 24 weeks; cited from earlier work

Compound	Inhibition of skin pathogens in vitro (in words) [1]	MIC range [2] [µg/mL]	MIC range (Staphylococcus aureus) [µg/mL]	MIC range (Malassezia pachydermatis) [µg/mL]	Improvement of hand dermatitis (in words) [3]
CCCCCC/C=C\CCCCCCCC(=O)O [Palmitoleic, palmitoleic acid]	inhibitory	20 to 100	20 (≈ 78.6 µM)	–	–
CCCCC/C=C\C/C=C\CCCCCCCC(=O)O [linoleic acid]	inhibitory	–	–	–	–
CCCCCCCC/C=C\CCCCCCCC(=O)O [Oleic, oleic acid]	–	>25000	>25000	>25000	–
CCCCCCCCCCCC(=O)O [Lauric, lauric acid]	inhibitory	<200 to 800	<200 to 400	<200	–
CCCCC/C=C\C/C=C\C/C=C\CCCCC(=O)O [γ-linolenic acid]	–	–	–	–	did not improve hand dermatitis significantly
